Where two headings read alike, the source gives them in different places.
Tests used:
in vitro = details: human
HCV genotype 1b replicon = assay: HCV replicon assay (Zluc luciferase reporter); format: cell-based; details: Huh-7-derived Zluc cells, genotype 1b replicon, luciferase, 72 hours, read-out: HCV Replicon EC50
Experimental: Huh-7-derived cell line (Zluc) that harbors an HCV genotype 1b replicon and a luciferase reporter gene was grown in Dulbecco's Modified Eagle Medium (DMEM) supplemented with 10% fetal bovine serum, 2 mM GlutaMAX, 1% MEM nonessential amino acids, 100 IU/mL penicillin, 100 μg/mL streptomycin, and 0.5 mg/mL Geneticin® (G418). For dose response testing the cells were seeded in 96-well plates at 7.5×10^3 cells per well in a volume of 50 μL, and incubated at 37° C./5% CO2. Drug solutions were made up freshly in Huh-7 media as 2× stocks. Ten additional 5-fold dilutions were prepared from these stocks in DMEM without G418. At least three hours after Zluc cells were seeded, drug treatment was initiated by adding 50 μL of drug dilutions to the plates in duplicate. Final concentrations of drug ranged from 100 μM to 0.0000512 μM. Cells were then incubated at 37° C./5% CO2. Alternatively, compounds were tested at two concentrations (1 μM and 10 μM). […] After 72 hours of incubation, the inhibition of HCV replication was measured by quantification of photons emitted after mono-oxygenation of 5′-fluoroluciferin to oxyfluoroluciferin by firefly luciferase. For this, media was removed from the plates via gentle tapping. Fifty microliters of ONE-glo luciferase assay reagent was added to each well. The plates were shaken gently for 3 min at room temperature and luminescence was measured on a Victor^3 V 1420 multilabel counter (Perkin Elmer) with a 1 second read time using a 700 nm cut-off filter. The EC50 values were calculated from dose response curves from the resulting best-fit equations determined by Microsoft Excel and XLfit 4.1 software. When screening at two fixed concentrations, the results were expressed as % inhibition at 1 μM and 10 μM.

CC(C)(CO)C(=O)SCCO[PH](=O)OC[C@H]1O[C@@H](n2ccc(=O)[nH]c2=O)[C@H](O)[C@@H]1CO (mixture of isomers) [Compound 107 (Mixture of diastereomers)]
CC50 (in vitro): > 50 µM | EC50 (HCV genotype 1b replicon; Hepatitis C virus): > 10 µM

CC(C)(CO)C(=O)SCCOP1(=O)OC[C@H]2[C@@H](O)[C@H](n3ccc(=O)[nH]c3=O)O[C@@H]2CO1 (mixture of isomers) [Compound 109 (Mixture of diastereomers)]
CC50 (in vitro): > 50 µM | EC50 (HCV genotype 1b replicon; Hepatitis C virus): > 10 µM

CC(C)OC(=O)CCCOP1(=O)OC[C@H]2[C@@H](O)[C@H](n3ccc(=O)[nH]c3=O)O[C@@H]2CO1 (mixture of isomers) [Compound 112 (Mixture of diastereomers)]
CC50 (in vitro): > 50 µM | EC50 (HCV genotype 1b replicon; Hepatitis C virus): > 10 µM

O=c1ccn([C@@H]2O[C@@H]3COP(=O)(OCc4ccccc4)OC[C@H]3[C@H]2O)c(=O)[nH]1 (mixture of isomers) [Compound 113 (Mixture of diastereomers)]
CC50 (in vitro): > 50 µM | EC50 (HCV genotype 1b replicon; Hepatitis C virus): > 10 µM

O=c1ccn([C@@H]2O[C@H](CO[PH](=O)OCc3ccccc3)[C@@H](CO)[C@H]2O)c(=O)[nH]1 (mixture of isomers) [Compound 114 (Mixture of diastereomers)]
CC50 (in vitro): > 50 µM | EC50 (HCV genotype 1b replicon; Hepatitis C virus): > 10 µM

CCOC(=O)OC(C)OP(=O)(N[C@H](C(=O)OC)C(C)C)OC[C@H]1O[C@@H](n2cnc3c(OCC)nc(N)nc32)[C@H](O)[C@@H]1CF (mixture of isomers) [Compound 128a Mixture of diastereomers]
CC50 (in vitro): > 50 µM | EC50 (HCV genotype 1b replicon; Hepatitis C virus): > 10 µM

CC(C)OP1(=O)OC[C@H]2[C@@H](O)[C@H](n3ccc(=O)[nH]c3=O)O[C@@H]2CO1 (single isomer, unassigned) [Compound 108 (Diastereomer 1)]
CC50 (in vitro): > 50 µM | EC50 (HCV genotype 1b replicon; Hepatitis C virus): > 10 µM

CC(C)(CO)C(=O)SCCOP1(=O)OC[C@H]2[C@@H](O)[C@H](n3ccc(=O)[nH]c3=O)O[C@@H]2CO1 (single isomer, unassigned) [Compound 109 (Diastereomer 1)]
CC50 (in vitro): > 50 µM | EC50 (HCV genotype 1b replicon; Hepatitis C virus): > 10 µM

CC(C)(CO)C(=O)SCCOP1(=O)OC[C@H]2[C@@H](O)[C@H](n3ccc(=O)[nH]c3=O)O[C@@H]2CO1 (single isomer, unassigned) [Compound 109 (Diastereomer 2)]
EC50 (HCV genotype 1b replicon): > 10 µM

CC(C)OC(=O)[C@@H](C)NP1(=O)OC[C@H]2[C@@H](O)[C@H](n3ccc(=O)[nH]c3=O)O[C@@H]2CO1 (single isomer, unassigned) [Compound 110a (Diastereomer 1)]
CC50 (in vitro): > 50 µM | EC50 (HCV genotype 1b replicon; Hepatitis C virus): > 10 µM

CC(C)OC(=O)CCCOP1(=O)OC[C@H]2[C@@H](O)[C@H](n3ccc(=O)[nH]c3=O)O[C@@H]2CO1 (single isomer, unassigned) [Compound 112 (Diastereomer 1)]
CC50 (in vitro): > 50 µM | EC50 (HCV genotype 1b replicon; Hepatitis C virus): > 10 µM

CC(C)OC(=O)CCCOP1(=O)OC[C@H]2[C@@H](O)[C@H](n3ccc(=O)[nH]c3=O)O[C@@H]2CO1 (single isomer, unassigned) [Compound 112 (Diastereomer 2)]
EC50 (HCV genotype 1b replicon): > 10 µM

O=c1ccn([C@@H]2O[C@@H]3COP(=O)(OCc4ccccc4)OC[C@H]3[C@H]2O)c(=O)[nH]1 (single isomer, unassigned) [Compound 113 (Diastereomer 1)]
CC50 (in vitro): > 50 µM | EC50 (HCV genotype 1b replicon; Hepatitis C virus): > 10 µM

C[C@@H](NP1(=O)OC[C@H]2[C@@H](O)[C@H](n3ccc(=O)[nH]c3=O)O[C@@H]2CO1)C(=O)OCc1ccccc1 (single isomer, unassigned) [Compound 120a (Diastereomer 1)]
CC50 (in vitro): > 50 µM | EC50 (HCV genotype 1b replicon; Hepatitis C virus): > 10 µM

C[C@@H](NP(=O)(OC[C@H]1O[C@@H](n2ccc(=O)[nH]c2=O)[C@H](O)[C@@H]1CO)Oc1ccccc1)C(=O)OCc1ccccc1 (single isomer, unassigned) [Compound 123a Diastereomer 1]
CC50 (in vitro): > 50 µM | EC50 (HCV genotype 1b replicon; Hepatitis C virus): > 10 µM

C[C@@H](NP(=O)(OC[C@H]1O[C@@H](n2cnc3c(=O)[nH]c(N)nc32)[C@H](O)[C@@H]1CF)Oc1ccccc1)C(=O)OC1CCCC1 (single isomer, unassigned) [Compound 124a Diastereomer 1]
CC50 (in vitro): > 50 µM | EC50 (HCV genotype 1b replicon; Hepatitis C virus): > 10 µM
